The term EC50 denotes the concentration needed to bring the measured effect to its halfway point. For orientation: half-life means the time in which the quantity being followed falls by half.

Consider 3 compounds from ChEMBL document CHEMBL1212740, “Long-lasting enfuvirtide carrier pentasaccharide conjugates with potent anti-human immunodeficiency virus type 1 activity” (Antimicrob Agents Chemother, 2010).

The test system of data set [1] is Human immunodeficiency virus 1. The data set can be described thus: Antiviral activity against HIV1 DJ259 in human PBMC assessed as p24 antigen level by ELISA. To be noted: Human immunodeficiency virus 1, DJ259. In kind it is functional, organism-based. For orientation: In an ELISA, binding on a coated surface is turned into a signal by an enzyme label.
Data set [2] deals with Human immunodeficiency virus 1. The data set can be described thus: Antiviral activity against HIV1 NL4.3 in human PBMC assessed as p24 antigen level by ELISA. To be noted: Human immunodeficiency virus 1, NL4.3. The class given is functional, organism-based.
Data set [3] concerns Human immunodeficiency virus 1. The data set can be described thus: Antiviral activity against HIV1 Ba-L in human PBMC assessed as p24 antigen level by ELISA. In kind it is functional, organism-based. As to conditions: Human immunodeficiency virus 1, Ba-L.
For data set [4], the system named is Human immunodeficiency virus 1. The data set can be described thus: Antiviral activity against HIV1 strain I-2496 in human PBMC assessed as p24 antigen level by ELISA. To be noted: Human immunodeficiency virus 1, I-2496. The class given is functional, organism-based.
Data set [5] deals with Human immunodeficiency virus 1. The data set can be described thus: Antiviral activity against HIV1 BZ167 in human PBMC assessed as p24 antigen level by ELISA. To be noted: Human immunodeficiency virus 1, BZ167. The class given is functional, organism-based.
Data set [6] deals with Human immunodeficiency virus 1. The data set can be described thus: Antiviral activity against HIV1 ETH2220 in human PBMC assessed as p24 antigen level by ELISA. The class given is functional, organism-based. To be noted: Human immunodeficiency virus 1, ETH2220.
The test system of data set [7] is Human immunodeficiency virus 1. The data set can be described thus: Antiviral activity against HIV1 US2 clade B, R5 in human PBMC assessed as p24 antigen level by ELISA. In kind it is functional, organism-based. To be noted: Human immunodeficiency virus 1, US2.
Data set [8] concerns Human immunodeficiency virus 1. The data set can be described thus: Antiviral activity against HIV1 UG273 clade A, R5 in human PBMC assessed as p24 antigen level by ELISA. In kind it is functional, organism-based. As to conditions: Human immunodeficiency virus 1, UG273.
For data set [9], the system named is Human immunodeficiency virus 1. The data set can be described thus: Antiviral activity against HIV1 3B/LA1 infected in HUT-78 cells co-cultured with uninfected human SupT1 CD4+ T-cell assessed as inhibition of envelope mediated cell-cell fusion after 16-20 hrs by cell-cell fusion assay. The class given is functional, organism-based. To be noted: Human immunodeficiency virus 1, 3B/LA1, HuT78.

The subject of a further data set is PBMC. The data set can be described thus: Cytotoxicity against human PBMC up to 100 uM by MTS assay. In kind it is cell-based. For orientation: Formazan colour is commonly taken as a measure of viable cells.
The next data set has as its system CCRF-CEM. The data set can be described thus: Cytotoxicity against human CEM cells up to 100 uM by MTS assay. The class given is cell-based.
A short description of data set [10]: Elimination half life in Wister rat at 4 mg/ kg, iv. In kind it is ADME, organism-based. Details: dose 4 mg/ kg, route intravenous. To be noted: Wistar, in vivo.
In data set [11] the test system is Human immunodeficiency virus 1. The data set can be described thus: Antiviral activity against HIV1 3B/LA1 infected in human CD4+ T-cell assessed as inhibition of giant cell formation. The class given is functional, organism-based. To be noted: Human immunodeficiency virus 1, 3B/LA1, CD4+ T cell.
In data set [12] the test system is Human immunodeficiency virus 2. The data set can be described thus: Antiviral activity against Human immunodeficiency virus 2 ROD infected in human CD4+ T-cell assessed as inhibition of giant cell formation. The class given is functional, organism-based. To be noted: Human immunodeficiency virus 2, ISOLATE ROD.

Regarding `Cc1nnc(C(C)C)n1[C@H]1C[C@H]2CC[C@@H](C1)N2CC[C@H](NC(=O)C1CCC(F)(F)CC1)c1ccccc1` [MARAVIROC], the EC50 was 3.7 nM in [1]; above 1000 nM in data set [2]; 3.8 nM in data set [3]; 0.4 nM in data set [4]; above 1000 nM in [5]; 3.6 nM in [6]. Also, the values for the EC50 in data set [7] and in data set [8] were 0.3 nM and 2.6 nM, respectively.

For the compound enfuvirtide, the EC50 turned out to be 275 nM in data set [9]; 17.9 nM in data set [1]; 3.6 nM in [2]; 17.9 nM in data set [3]; 12.4 nM in data set [4]; 17.9 nM in data set [5]. Further, the EC50 in data set [6] amounted to 17.7 nM; in [11], 3 nM; in data set [7], 6.3 nM; in [12], 360 nM; in [8], 55.9 nM. The Activity result in the data set with PBMC and with CCRF-CEM was “Toxic” throughout. The same compound gave a half-life in [10] of 2.8 h.

With `c1cc(CN2CCCNCCNCCCNCC2)ccc1CN1CCCNCCNCCCNCC1` [PLERIXAFOR], the EC50 is above 1000 nM in [1]; 3.6 nM in data set [2]; above 1000 nM in data set [3]; above 1000 nM in data set [4]; 18.5 nM in data set [5]; above 1000 nM in [6]. Further, the EC50 in data set [7] and in data set [8] was above 1000 nM in each case.
